Read-outs that look alike come from different tables or passages of the source.
How the values were obtained:
[1] = tested on: Key Broadleaf Weed and Crop Species; test: Post-emergent Test II herbicidal activity (Table 5); format: in vivo; conditions: post-emergence, 336 h, 14 days after application; for pest or weed control at 70 g/ha: application rate 70 g ai/ha; for pest or weed control at 140 g/ha: application rate 140 g ai/ha
In short: (§1)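 Scoring: visual, 0–100% injury at 14 d versus untreated. Treatment: overhead track spray, 187 L/ha, onto plants at the first–second true leaf stage. Growth: greenhouse, ~15 h light, 23–29 °C day, 22–28 °C night.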

[2] = tested on: Key Grass and Sedge Weeds as well as Grass Crops; test: Post-emergent Test II herbicidal activity (Table 6); format: in vivo; conditions: post-emergence, 336 h; for pest or weed control at 70 g/ha: 70 g ai/ha; for pest or weed control at 140 g/ha: 140 g ai/ha
In short: as §1

[3] = ABUTH: velvetleaf (Abutilon theophrasti), read-out: Visual Growth Reduction (%) 14 Days After Application, ABUTH
[4] = AMARE: redroot pigweed (Amaranthus retroflexus), read-out: Visual Growth Reduction (%) 14 Days After Application, AMARE
[5] = BRSNN: oilseed-rape, canola (Brassica napus), read-out: Visual Growth Reduction (%) 14 Days After Application, BRSNN
[6] = CHEAL: lambsquarters (Chenopodium album), read-out: Visual Growth Reduction (%) 14 Days After Application, CHEAL
[7] = EPHHL: wild poinsettia (Euphorbia heterophylla), read-out: Visual Growth Reduction (%) 14 Days After Application, EPHHL
[8] = HELAN: sunflower (Helianthus annuus), read-out: Visual Growth Reduction (%) 14 Days After Application, HELAN
[9] = VIOTR: wild pansy (Viola tricolor), read-out: Visual Growth Reduction (%) 14 Days After Application, VIOTR
[10] = CYPES: yellow nutsedge (Cyperus esculentus), read-out: Visual Growth Reduction (%) 14 Days After Application, CYPES
[11] = DIGSA: crabgrass (Digitaria sanguinalis), read-out: Visual Growth Reduction (%) 14 Days After Application, DIGSA
[12] = ECHCG: barnyardgrass (Echinochloa crus-galli), read-out: Visual Growth Reduction (%) 14 Days After Application, ECHCG
[13] = ORYSA: rice (Oryza sativa), crop, read-out: Visual Growth Reduction (%) 14 Days After Application, ORYSA
[14] = SETFA: giant foxtail (Setaria faberi), read-out: Visual Growth Reduction (%) 14 Days After Application, SETFA
[15] = SORVU: grain sorghum (Sorghum vulgare), read-out: Visual Growth Reduction (%) 14 Days After Application, SORVU
[16] = TRZSS (wheat, Triticum aestivum), crop, read-out: Visual Growth Reduction (%) 14 Days After Application, TRZSS
[17] = ZEAMX: maize, corn (Zea mays), crop, read-out: Visual Growth Reduction (%) 14 Days After Application, ZEAMX

`COC(=O)c1nc(-c2ccc(C(F)F)c(F)c2)cc(N)c1Cl` [Compound 196] showed a pest or weed control at 70 g/ha [1, 3] of 95 to 100%, a pest or weed control at 140 g/ha [1, 3] of 95 to 100% and a pest or weed control at 70 g/ha [1, 4] of 95 to 100%. For the same molecule, the pest or weed control at 140 g/ha [1, 4] was 95 to 100%, the pest or weed control at 70 g/ha [1, 5] was 30 to 44% and the pest or weed control at 140 g/ha [1, 5] was 30 to 44%. For the same molecule, the pest or weed control at 70 g/ha [1, 6] was 95 to 100%, the pest or weed control at 140 g/ha [1, 6] was 95 to 100% and the pest or weed control at 70 g/ha [1, 7] was 95 to 100%. For the same molecule, the pest or weed control at 140 g/ha [1, 7] was 95 to 100%, the pest or weed control at 70 g/ha [1, 8] was 95 to 100% and the pest or weed control at 140 g/ha [1, 8] was 95 to 100%. It also gave a pest or weed control at 70 g/ha [1, 9] of 0 to 29%, a pest or weed control at 140 g/ha [1, 9] of 0 to 29% and a pest or weed control at 70 g/ha [2, 10] of 85 to 94%. It also gave a pest or weed control at 140 g/ha [2, 10] of 85 to 94%, a pest or weed control at 70 g/ha [2, 11] of 45 to 59% and a pest or weed control at 140 g/ha [2, 11] of 45 to 59%. The pest or weed control at 70 g/ha [2, 12] was 95 to 100%, the pest or weed control at 140 g/ha [2, 12] was 95 to 100% and the pest or weed control at 70 g/ha [2, 13] was 0 to 29%. For the same molecule, the pest or weed control at 140 g/ha [2, 13] was 0 to 29%, the pest or weed control at 70 g/ha [2, 14] was 0 to 29% and the pest or weed control at 140 g/ha [2, 14] was 0 to 29%. The pest or weed control at 70 g/ha [2, 15] was 75 to 84%, the pest or weed control at 140 g/ha [2, 15] was 75 to 84% and the pest or weed control at 70 g/ha [2, 16] was 0 to 29%. It also gave a pest or weed control at 140 g/ha [2, 16] of 0 to 29%, a pest or weed control at 70 g/ha [2, 17] of 0 to 29% and a pest or weed control at 140 g/ha [2, 17] of 75 to 84%.
